Clc1ccc(COC(Cn2ccnc2)c2ccc(Cl)cc2Cl)cc1.O=[N+]([O-])O (centres undefined)
solubility (mole fraction)
Conditions	278.15 K	283.15 K	288.15 K	293.15 K	298.15 K	303.15 K	308.15 K	313.15 K	318.15 K
in 1,4-dioxane	–	–	0.000262	0.000317	0.000393	0.000482	0.000596	0.000729	0.000897
in ethanol	0.000526	0.000656	0.000832	0.00102	0.00125	0.00153	0.00189	0.00228	0.00275
in methanol	0.0015	0.00181	0.00221	0.00266	0.00328	0.00397	0.00479	0.00577	0.00687
in water	1.67e-05	2.05e-05	2.47e-05	2.93e-05	3.44e-05	3.98e-05	4.56e-05	5.16e-05	5.78e-05

Reference: BigSolDB 2.1
